# From patent publication US20120121540A1 (priority 2007, published 2012)
# Assay: HCV replicon assay (luciferase reporter, ET cell line)
# Assay type: cell-based
# Conditions: Hepatitis C virus, HCV replicon luciferase activity in ET cells
# Procedure, shortened: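 EC50 and, via WST-1 cytotoxicity, TC50 were fitted with a Hill-coefficient equation to % inhibition across 10 two-fold dilutions. Compounds at 0.1 nM-[…] with 0.5% DMSO were applied 24 h post-seeding to replicon-bearing ET cells (luc-ubi-neo/NS3-5B, adaptive mutations). Firefly luciferase signal was measured after 48-72 h.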
row,SMILES,inhibition at 10 µM
1,"COc1cccc(OC)c1C1=CCN(C(=O)c2nc3c(C(F)(F)F)cc(-c4ccoc4)cn3c2Cl)CC1 [Compound 562, (3-Chloro-6-furan-3-yl-8-trifluoromethyl-imidazo[1,2-a]pyridin-2-yl)-[4-(2,6-dimethoxy-phenyl)-3,6-dihydro-2H-pyridin-1-yl)-methanone]",13.4%
2,"O=C(c1nc2c(C(F)(F)F)cc(-c3cn[nH]c3)cn2c1Br)N1CC=C(c2nccs2)C1 [Compound 433, [3-Bromo-6-(1H-pyrazol-4-yl)-8-trifluoromethyl-imidazo[1,2-a]pyridin-2-yl]-(3-thiazol-2-yl-2,5-dihydro-pyrrol-1-yl)-methanone]",99.2%
3,"Nc1nc(-c2cc(C(F)(F)F)c3nc(C(=O)N4CCC(c5cccc(F)c5)C4)c(Cl)n3c2)cs1 (centres unmarked) [Compound 643, 2[6-(2-Amino-thiazol-4-yl)-3-chloro-8-trifluoromethyl-imidazo[1,2-a]pyridin-2-yl]-[3-(3-fluoro-phenyl)-pyrrolidin-1-yl]-methanone]",74.5%
4,"COc1ccc(CNC(=O)c2nc3c(C(F)(F)F)cc(-c4ccco4)cn3c2Cl)cc1 [Compound 192, 3-Chloro-6-furan-2-yl-8-trifluoromethyl-imidazo[1,2-a]pyridine-2-carboxylic acid 4-methoxy-benzylamide]",73.9%
5,"O=C(c1nc2c(C(F)(F)F)cc(-c3ccoc3)cn2c1Cl)N1CCC(c2cccs2)C1 (centres unmarked) [Compound 423, (3-Chloro-6-furan-3-yl-8-trifluoromethyl-imidazo[1,2-a]pyridin-2-yl)-(3-thiophen-2-yl-pyrrolidin-1-yl)-methanone]",99.8%
6,"O=C(c1nc2c(C(F)(F)F)cc(-c3ccoc3)cn2c1Cl)N1CC(NS(=O)(=O)c2cccs2)C1 [Compound 499, Thiophene-2-sulfonic acid [1-(3-chloro-6-furan-3-yl-8-trifluoromethyl-imidazo[1,2-a]pyridine-2-carbonyl)-azetidin-3-yl]-amide]",93.4%
7,"COc1ccccc1CNC(=O)c1nc2c(C(F)(F)F)cc(-c3ccco3)cn2c1Cl [Compound 190, 3-Chloro-6-furan-2-yl-8-trifluoromethyl-imidazo[1,2-a]pyridine-2-carboxylic acid 2-methoxy-benzylamide]",68.1%
8,"O=C(NCc1cccs1)c1nn2c(Br)cc(-c3ccccc3)cc2c1Cl [Compound 112, 7-Bromo-3-chloro-5-phenyl-pyrazolo[1,5-a]pyridine-2-carboxylic Acid (thiophen-2-ylmethyl)-amide]",74.2%
9,"O=C(NCc1cccs1)c1nn2c(I)cc(-c3ccccc3)cc2c1I [Compound 119, 3,7-diiodo-5-phenyl-pyrazolo[1,5-a]pyridine-2-carboxylic Acid (thiophen-2-ylmethyl)-amide]",71.5%
10,"O=C(c1nc2c(C(F)(F)F)cc(-c3ccoc3)cn2c1Cl)N1CC=C(c2cccc(F)c2)CC1 [Compound 576, (3-Chloro-6-furan-3-yl-8-trifluoromethyl-imidazo[1,2-a]pyridin-2-yl)-[4-(3-fluoro-phenyl)-3,6-dihydro-2H-pyridin-1-yl)-methanone]",82.6%
11,"Cn1cncc1CNC(=O)c1nc2c(C(F)(F)F)cc(-c3ccco3)cn2c1Cl [Compound 327, 3-Chloro-6-furan-2-yl-8-trifluoromethyl-imidazo[1,2-a]pyridine-2-carboxylic Acid (3-methyl-3H-imidazol-4-ylmethyl)-amide]",95.4%
12,"O=C(c1nc2c(C(F)(F)F)cc(-c3ccoc3)cn2c1Cl)N1CCC(c2ncon2)C1 (centres unmarked) [Compound 417, (3-Chloro-6-furan-3-yl-8-trifluoromethyl-imidazo[1,2-a]pyridine-2-yl)-(3-[1,2,4]oxadiazol-3-yl-pyrrolidin-1-yl)-methanone]",96.5%
13,"O=C(NCc1cncs1)c1nc2c(C(F)(F)F)cc(-c3ccoc3)cn2c1Cl [Compound 360, 3-Chloro-6-furan-3-yl-8-trifluoromethyl-imidazo[1,2-a]pyridine-2-carboxylic Acid (thiazol-5-ylmethyl)-amide]",85.2%
14,"O=C(NCc1cccs1)c1nc2c(C(F)(F)F)cc(-c3cccc(F)c3)cn2c1C#CCCO [Compound 306, 6-(3-Fluoro-phenyl)-3-(4-hydroxy-but-1-ynyl)-8-trifluoromethyl-imidazo[1,2-a]pyridine-2-carboxylic Acid (thiophen-2-ylmethyl)-amide]",62.5%
15,"O=C(c1nc2c(C(F)(F)F)cc(-c3ccoc3)cn2c1Cl)N1CCC(c2cccc(Cl)c2)C1 (centres unmarked) [Compound 460, (3-Chloro-6-furan-3-yl-8-trifluoromethyl-imidazo[1,2-a]pyridin-2-yl)-[3-(3-chloro-phenyl)-pyrrolidin-1-yl]-methanone]",88%
16,"O=C(c1nc2c(C(F)(F)F)cc(-c3ccoc3)cn2c1Cl)N1CCN(c2noc3ccccc23)CC1 [Compound 551, (4-Benzo[d]isoxazol-3-yl-piperazin-1-yl)-(3-Chloro-6-furan-3-yl-8-trifluoromethyl-imidazo[1,2-a]pyridine-2-yl)-methanone]",38.5%

row,SMILES,inhibition at 10 µM
1,"N#Cc1cccc(C2CCN(C(=O)c3nc4c(C(F)(F)F)cc(-c5ccoc5)cn4c3Cl)C2)c1 (centres unmarked) [Compound 450, 3-(1-(3-Chloro-6-furan-3-yl-8-trifluoromethyl-imidazo[1,2-a]pyridine-2-carbonyl)-pyrrolidin-3-yl)-benzonitrile]",82.5%
2,"CC(NC(=O)c1nc2c(C(F)(F)F)cc(-c3ccco3)cn2c1Cl)c1cccs1 (centres unmarked) [Compound 162, 3-Chloro-6-furan-2-yl-8-trifluoromethyl-imidazo[1,2-a]pyridine-2-carboxylic acid (1-thiophen-2-yl-ethyl)-amide]",44.2%
3,"O=C(NCc1cccs1)c1nc2c(C(F)(F)F)cc(-c3ccc(F)c(F)c3)cn2c1Cl [Compound 198, 3-Chloro-6-(3,4-difluoro-phenyl)-8-trifluoromethyl-imidazo[1,2-a]pyridine-2-carboxylic acid (thiophen-2-ylmethyl)-amide]",83.2%
4,"CN(C)Cc1c(C(=O)NCc2cccs2)nc2c(C(F)(F)F)cc(-c3cccc(F)c3)cn12 [Compound 365, 3-Dimethylaminomethyl-6-(3-fluoro-phenyl)-8-trifluoromethyl-imidazo[1,2-a]pyridine-2-carboxylic Acid (thiophen-2-ylmethyl)-amide]",4.4%
5,"CC(C)Cn1cc(-c2cc(C(F)(F)F)c3nc(C(=O)NCc4cccs4)c(Cl)n3c2)cn1 [Compound 649, 3-Chloro-6-(1-isobutyl-1H-pyrazol-4-yl)-8-trifluoromethyl-imidazo[1,2-a]pyridine-2-carboxylic Acid(thiophen-2-ylmethyl)-amide]",62.7%
6,"CN(C)CCN(Cc1cccs1)C(=O)c1nc2c(C(F)(F)F)cc(-c3ccco3)cn2c1Cl [Compound 319, 3-Chloro-6-furan-2-yl-8-trifluoromethyl-imidazo[1,2-a]pyridine-2-carboxylic Acid (2-dimethylamino-ethyl)-thiophen-2-ylmethyl-amide]",58.8%
7,"O=C(c1nc2c(C(F)(F)F)cc(-c3cn[nH]c3)cn2c1Br)N1CC=C(c2ccsc2)C1 [Compound 435, [3-Bromo-6-(1H-pyrazol-4-yl)-8-trifluoromethyl-imidazo[1,2-a]pyridin-2-yl]-(3-thiophen-3-yl-2,5-dihydro-pyrrol-1-yl)-methanone]",98.8%
8,"O=C(NCc1cccs1)c1nc2c(C(F)(F)F)cc(-c3cccs3)cn2c1Cl [Compound 175, 3-Chloro-6-thiophen-2-yl-8-trifluoromethyl-imidazo[1,2-a]pyridine-2-carboxylic acid (thiophen-2-ylmethyl)-amide]",99.4%
9,"O=C(c1nc2c(C(F)(F)F)cc(-c3ccoc3)cn2c1Cl)N1CC=C(c2cccs2)CC1 [Compound 613, (3-Chloro-6-furan-3-yl-8-trifluoromethyl-imidazo[1,2-a]pyridin-2-yl)-(4-thiophen-2-yl-3,6-dihydro-2H-pyridin-1-yl)-methanone]",99.4%
10,"CCN(CC)C(=O)/C=C/c1cc(-c2ccccc2)cn2c(Cl)c(C(=O)NCc3cccs3)nc12 [Compound 268, 3-Chloro-8-((E/Z)-2-diethylcarbamoyl-vinyl)-6-phenyl-imidazo[1,2-a]pyridine-2-carboxylic Acid (thiophen-2-ylmethyl)-amide]",40.2%
11,"O=C(NCc1cccs1)c1cc2cc(-c3ccccc3)cc(NCCO)n2n1 [Compound 154, 7-(2-Hydroxy-ethylamino)-5-phenyl-pyrazolo[1,5-a]pyridine-2-carboxylic acid (thiophen-2-ylmethyl)-amide]",58.8%
12,"O=C(NCc1ccc(-c2ccccn2)s1)c1nc2c(C(F)(F)F)cc(-c3ccco3)cn2c1Cl [Compound 219, 3-Chloro-6-furan-2-yl-8-trifluoromethyl-imidazo[1,2-a]pyridine-2-carboxylic Acid (5-pyridin-2-yl-thiophen-2-ylmethyl)-amide]",25.4%
13,"O=C(NCc1cccs1)c1nc2c(C(F)(F)F)cc(-c3ccc(C(F)(F)F)cc3)cn2c1Cl [Compound 199, 3-Chloro-8-trifluoromethyl-6-(4-trifluoromethyl-phenyl)-imidazo[1,2-a]pyridine-2-carboxylic acid (thiophen-2-ylmethyl)-amide]",41%
14,"O=C(c1nc2c(C(F)(F)F)cc(-c3cn[nH]c3)cn2c1Cl)N1CCC(c2ccccc2F)CC1 [Compound 606, [3-Chloro-6-(1H-pyrazol-4-yl)-8-trifluoromethyl-imidaz [1,2-a]pyridin-2-yl]-[4-(2-fluoro-phenyl)-piperidin-1-yl]-methanone]",87.9%
15,"O=C(c1nc2c(C(F)(F)F)cc(-c3ccoc3)cn2c1Cl)N1CCC(c2nccs2)C1 (centres unmarked) [Compound 430, (3-Chloro-6-furan-3-yl-8-trifluoromethyl-imidazo[1,2-a]pyridin-2-yl)-(3-thiazol-2-yl-pyrrolidin-1-yl)-methanone]",99.4%
16,O=S(=O)(NCc1cn2cc(-c3ccoc3)cc(C(F)(F)F)c2n1)c1ccccc1 [Compound 395],90.4%
